The values below come from article PMC6514978, “Synthesis, Antibacterial Activities, Mode of Action and Acute Toxicity Studies of New Oxazolidinone-Fluoroquinolone Hybrids” (Molecules, 2019).

For series [1], the target named is T1, E. coli Topo IV (Escherichia coli, UniProt P0AFI2+P20083).
T1 construct: purchased Inspiralis Co., Ltd; host or cells: overexpressing E. coli
Description: Topo IV relaxation assay. The class given is biochemical. The settings on record: relaxation of supercoiled pBR322, 37 °C, 30 min. The protocol: The E. coli Topo IV Relaxation Assay Kit (Inspiralis Co., Ltd.) was used to evaluate the effects of hybrids OBP-4 and OBP-5 against topo IV. Topo IV was prepared by the overexpressing E. coli. One unit of topo IV will relax 0.4 μg of supercoiled pBR322. In the assay, the final reaction mixtures (30 μL) consisted of 0.4 μg supercoiled pBR322 and one unit DNA Topo IV with or without compounds in assay buffer with 40 mM Hepes-KOH (pH 7.6), 100 mM potassium glutamate, 10 mM magnesium acetate, 10 mM DTT, 1 mM ATP and 50 μg/mL albumin, and then was incubated at 37 °C for 30 min. The reaction was terminated by adding 30 μL of STEB and 30 μL of chloroform/isoamyl alcohol (v:v, 24:1) after incubation for 30 min. Then, the reaction products were processed as described in a DNA gyrase supercoiling assay.

Series [2] can be described thus: Acute oral toxicity, limit test (OECD 425). The note with it: female, Kunming, mouse, in vivo, 2000 mg/kg·bw; mice, single oral dose, limit test 2000 mg/kg, 14 d observation. The class given is in vivo. Here is the method: (§1) Female Kunming mice (SPF grade, 18–22 g) were obtained from laboratory animal center of Lanzhou Veterinary Research Institute (Lanzhou, China). Mice were maintained under the standard conditions of 12 h light/dark cycle, room temperate (22 ± 3 °C), 50–60% relative humidity. They were fed normally with an unlimited supply of feed and water for seven days and deprived of food but not water for 4 h prior to the experiment. The toxicity test was supported by the Animal Ethics Committee of Lanzhou Institute of Husbandry and Pharmaceutical Sciences.
(§2) The acute toxicity of hybrids OBP-4 and OBP-5 was conducted by the limit test described in the OECD guideline 425 [39]. The mice were divided randomly into two groups, five animals in each group. One group of mice received a single oral dose of hybrids OBP-4 or OBP-5 at 2000 mg/kg·bw, and the other group of mice was given the equal volume of 0.5% CMC-Na solution (0.1 mL/10 g of body weight). Food was restored until 4 h after administration. The observation of each animal occurred according to the OECD guideline 425 [27], meaning continuously during the first 30 min, periodically during the next 24 h, and then daily thereafter until 14 d after dosing. The weight changes and mortality were calculated and recorded. The mice that survived were humanely killed at the end of the experiment.

For series [3], the system named is Female Kunming mice. Description: Acute oral toxicity, limit test (OECD 425). The class given is in vivo. The note with it: single oral dose 2000 mg/kg, 14 d observation. The protocol:
as §1, §2

Series [4] has as its system Gram-positive bacteria. As to the kind of experiment: MIC summary, Gram-positive bacteria of the preliminary panel. The class given is cell-based. The text has this: (§3) 6 standard strains and 3 clinical isolates were used to the preliminary evaluation of in vitro antibacterial activities of oxazolidinone-fluoroquinolone hybrids. For the further evaluation of hybrids OBP-4 and OBP-5, 263 clinical isolates including S. aureus (46), S. haemolyticus(32), S. epidermidis (10), E. faecalis (72), E. faecium (47), S. pneumoniae (13), H. parasuis (34), S. suis (9), and 8 resistant strains including MRSA, MRSE, CIP-resistant S. aureus and S. haemolyticus, VAN and quinolone-resistant S. pneumoniae, LZD-resistant E. faecalis, LZD/VAN and quinolone-resistant E. faecium were collected and tested.
(§4) Susceptibility testing of oxazolidinone-fluoroquinolone hybrids against various bacteria was performed by the broth microdilution method as outlined by the Clinical and Laboratory Standards Institute (CLSI). Three types of media, including cation-adjusted Mueller Hinton broth, Haemophilus Test Medium and cation-adjusted Mueller Hinton broth that contained 3%–5% lysed horse blood, were used to culture the corresponding bacteria. All compounds including comparator drugs were dissolved in an appropriate solvent at a concentration of 2.048 mg/mL and then serially diluted two-fold to provide the required concentrations. A final inoculum of 5 × 10^5 CFU/mL was used and plates were read after incubation for 16–24 h at 35 °C. […]

The subject of series [5] is Gram-positive isolates. Description: MIC summary, clinical isolates. The class given is cell-based. The note with it: for MIC90: Gram-positive clinical isolates, read-out: MIC90 values for Gram-positive isolates (span over species).
Excerpt: as §3
Susceptibility testing of oxazolidinone-fluoroquinolone hybrids against various bacteria was performed by the broth microdilution method as outlined by the Clinical and Laboratory Standards Institute (CLSI). Three types of media, including cation-adjusted Mueller Hinton broth, Haemophilus Test Medium and cation-adjusted Mueller Hinton broth that contained 3%–5% lysed horse blood, were used to culture the corresponding bacteria. All compounds including comparator drugs were dissolved in an appropriate solvent at a concentration of 2.048 mg/mL and then serially diluted two-fold to provide the required concentrations. A final inoculum of 5 × 10^5 CFU/mL was used and plates were read after incubation for 16–24 h at 35 °C. […] Standard quality control strains (ATCC) were included throughout. Each determination was repeated in triplicate.

Series [6] concerns other resistant organisms in the test. Description: MIC summary, resistant organisms other than MRSA and MRSE. The class given is cell-based. The note with it: resistant strains other than MRSA and MRSE; read-out: MICs values against other resistant organisms.
Excerpt: as §3, §4

SMILES strings stand for the structures. Values after ≈ are worked out from the molar mass of the structure shown.

T1 sequence (P20083 whole entry): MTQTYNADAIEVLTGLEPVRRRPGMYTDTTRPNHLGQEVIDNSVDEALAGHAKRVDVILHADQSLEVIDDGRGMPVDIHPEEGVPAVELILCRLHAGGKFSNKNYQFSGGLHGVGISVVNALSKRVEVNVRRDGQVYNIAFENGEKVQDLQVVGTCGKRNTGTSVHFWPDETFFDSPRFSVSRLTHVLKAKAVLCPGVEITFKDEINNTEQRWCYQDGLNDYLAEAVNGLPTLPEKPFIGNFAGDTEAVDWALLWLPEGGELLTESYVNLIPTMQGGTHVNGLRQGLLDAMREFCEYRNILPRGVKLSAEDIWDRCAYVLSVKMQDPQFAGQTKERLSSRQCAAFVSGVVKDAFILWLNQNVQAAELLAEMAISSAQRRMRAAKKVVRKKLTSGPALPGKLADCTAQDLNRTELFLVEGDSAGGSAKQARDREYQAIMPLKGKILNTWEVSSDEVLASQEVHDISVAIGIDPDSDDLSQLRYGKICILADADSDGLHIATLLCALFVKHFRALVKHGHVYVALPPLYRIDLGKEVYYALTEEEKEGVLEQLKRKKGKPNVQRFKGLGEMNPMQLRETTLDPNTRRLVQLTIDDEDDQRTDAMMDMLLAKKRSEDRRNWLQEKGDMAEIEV
T1 sequence (P0AFI2 whole entry): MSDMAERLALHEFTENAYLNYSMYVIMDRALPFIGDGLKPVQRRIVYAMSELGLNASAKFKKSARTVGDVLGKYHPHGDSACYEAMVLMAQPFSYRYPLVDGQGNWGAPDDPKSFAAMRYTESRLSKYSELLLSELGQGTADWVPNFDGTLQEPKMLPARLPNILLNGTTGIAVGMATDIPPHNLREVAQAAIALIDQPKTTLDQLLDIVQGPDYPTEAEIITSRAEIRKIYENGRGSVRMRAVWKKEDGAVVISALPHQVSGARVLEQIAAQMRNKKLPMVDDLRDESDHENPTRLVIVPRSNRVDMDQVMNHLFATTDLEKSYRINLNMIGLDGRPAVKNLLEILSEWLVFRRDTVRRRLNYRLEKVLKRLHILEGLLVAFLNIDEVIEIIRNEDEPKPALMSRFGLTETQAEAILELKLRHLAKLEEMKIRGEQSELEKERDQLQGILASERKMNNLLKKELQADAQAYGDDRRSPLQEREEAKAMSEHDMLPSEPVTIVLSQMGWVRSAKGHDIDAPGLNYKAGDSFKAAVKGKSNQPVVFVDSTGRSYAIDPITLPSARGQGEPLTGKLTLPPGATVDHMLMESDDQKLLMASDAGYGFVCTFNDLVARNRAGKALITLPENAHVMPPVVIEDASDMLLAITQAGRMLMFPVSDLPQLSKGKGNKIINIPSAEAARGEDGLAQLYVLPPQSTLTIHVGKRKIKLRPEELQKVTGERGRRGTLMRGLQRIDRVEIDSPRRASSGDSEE

Compound `C[C@H]1CCc2c(N3CCC(O)(COc4ccc(N5C[C@H](CO)OC5=O)cc4F)CC3)c(F)cc3c(=O)c(C(=O)O)cn1c23` [OBP-4] had a concentration for half-maximal inhibition (IC50) in series [1] of 10 to 15 µM. In series [2], this compound gave a median lethal dose (LD50) at 14 d above 2000 mg/kg. Besides, the “death and toxicity signs” value in series [3] is “No death and any toxicity signs were observed”. Besides, the MIC was at most 0.5 µg/mL in series [4] (read-out: MICs against Gram-positive bacteria) and 0.0625 to 1 µg/mL (≈ 0.104 to 1.67 µM) in series [6]. Moreover, the MIC90 in series [5] was 0.125 to 0.25 µg/mL (≈ 0.208 to 0.417 µM).
Compound `CC1Sc2c(C(=O)O)c(=O)c3cc(F)c(N4CCC(O)(COc5ccc(N6C[C@H](CO)OC6=O)cc5F)CC4)cc3n21` (stereo partly shown) [OBP-5] came in with an IC50 in series [1] above 40 µM. Moreover, in series [2], the LD50 at 14 d is above 2000 mg/kg. The “death and toxicity signs” value in series [3] is “No death and any toxicity signs were observed”. For the same compound, in series [4] (relative to LZD), the “antibacterial efficacy against Gram-positive bacteria, times stronger than LZD” value was 4–16 times. In addition, the MIC90 in series [5] lay in the range of 0.0625 to 0.25 µg/mL (≈ 0.104 to 0.414 µM). The “fold greater activity than OBP-4, overall” value in series [5] (tested clinical isolates) came to 2 fold. The MIC in series [6] was 0.0625 to 1 µg/mL (≈ 0.104 to 1.66 µM).

The term IC50 denotes the concentration at which inhibition is half-maximal. Low values mean greater potency in that assay, high ones weaker potency in that assay. For orientation: LD50 means the dose at which mortality reaches 50%. Higher therefore signals lower toxicity. What is called MIC90 is an inhibitory concentration at the 90% level, which refers to growth in some studies and to a panel of isolates in others.
